Source: PubChem BioAssay AID256 (DTP/NCI, 2004)
Several values for one entry are separate records, joined by “and”; a condition that tells them apart may be missing. Identical values can stand only once. Inconclusive results and toxic doses are left out.

Test system: CD2F1 mice, L1210 leukemia ip, survival T/C
Experiment: NCI In Vivo Anticancer Drug Screen. Data for tumor model L1210 Leukemia (intraperitoneal) in CD2F1 (CDF1) mice
Details: higher = longer survival
Method in brief: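 Vehicle-treated tumor-bearing mice served as controls (C) for compound-treated mice (T). Reported figure is T divided by C.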

[1] = endpoint: mean survival time, dose: 100.0 mg/kg/injection, schedule: Q01DX009 (ip), vehicle: saline with Tween-80
[2] = endpoint: mean survival time, dose: 100.0 mg/kg/injection, schedule: Q04DX003 (ip), vehicle: saline with Tween-80
[3] = endpoint: mean survival time, dose: 200.0 mg/kg/injection, schedule: Q01DX009 (ip), vehicle: saline with Tween-80
[4] = endpoint: mean survival time, dose: 200.0 mg/kg/injection, schedule: Q04DX003 (ip), vehicle: saline with Tween-80
[5] = endpoint: mean survival time, dose: 400.0 mg/kg/injection, schedule: Q01DX009 (ip), vehicle: saline with Tween-80
[6] = endpoint: mean survival time, dose: 400.0 mg/kg/injection, schedule: Q04DX003 (ip), vehicle: saline with Tween-80
[7] = endpoint: mean survival time, dose: 100.0 mg/kg/injection, schedule: Q04DX003 (ip), vehicle: saline
[8] = endpoint: mean survival time, dose: 200.0 mg/kg/injection, schedule: Q04DX003 (ip), vehicle: saline
[9] = endpoint: mean survival time, dose: 100.0 mg/kg/injection, schedule: Q01DX009 (ip), vehicle: other
[10] = endpoint: mean survival time, dose: 200.0 mg/kg/injection, schedule: Q01DX009 (ip), vehicle: other

In the case of `NC1CCCCC1N.O=C([O-])c1ccc(N=Nc2cccc([N+](=O)[O-])c2)cc1[O-].[Pt+4]`, the T/C (endpoint: median survival time, dose: 3.12 mg/kg/injection, schedule: Q04DX003 (ip), vehicle: saline with Tween-80) was 105 % of control and 109 % of control, the T/C (endpoint: median survival time, dose: 6.25 mg/kg/injection, schedule: Q04DX003 (ip), vehicle: saline with Tween-80) was 102 % of control and 110 % of control and the T/C (endpoint: median survival time, dose: 12.5 mg/kg/injection, schedule: Q04DX003 (ip), vehicle: saline with Tween-80) was 113 % of control. For the same compound, the T/C (endpoint: median survival time, dose: 25.0 mg/kg/injection, schedule: Q04DX003 (ip), vehicle: saline with Tween-80) was 116 % of control and 123 % of control, the T/C (endpoint: median survival time, dose: 50.0 mg/kg/injection, schedule: Q04DX003 (ip), vehicle: saline with Tween-80) was 123 % of control and the T/C (endpoint: median survival time, dose: 100.0 mg/kg/injection, schedule: Q04DX003 (ip), vehicle: saline with Tween-80) was 156 % of control. The T/C (endpoint: median survival time, dose: 200.0 mg/kg/injection, schedule: Q04DX003 (ip), vehicle: saline with Tween-80) was 166 % of control and 313 % of control.
`CC(=O)OCCc1nnnn1C` was tested, and the T/C [1] was 101 % of control, the T/C [2] was 104 % of control and the T/C [3] was 104 % of control. The T/C [4] was 104 % of control, the T/C [5] was 104 % of control and the T/C [6] was 101 % of control.
`CC(C)(C)c1cccc(C(C)(C)C)c1OC(=O)NS(=O)(=O)c1ccccc1` was tested, and the T/C (endpoint: mean survival time, dose: 12.5 mg/kg/injection, schedule: Q04DX003 (ip), vehicle: acetone) was 101 % of control, the T/C (endpoint: mean survival time, dose: 25.0 mg/kg/injection, schedule: Q04DX003 (ip), vehicle: acetone) was 101 % of control and the T/C (endpoint: mean survival time, dose: 50.0 mg/kg/injection, schedule: Q04DX003 (ip), vehicle: acetone) was 113 % of control.
With `Nc1nnnn1C1CCCCC1` the T/C [4] was 106 % of control, the T/C [5] was 92 % of control and the T/C [6] was 97 % of control.
`CCN(CC)CCOc1ccc2c(c1)C(=O)c1cc(OCCN(CC)CC)ccc1-2` was tested, and the T/C (endpoint: mean survival time, dose: 12.5 mg/kg/injection, schedule: Q01DX009 (ip), vehicle: saline) was 95 % of control, the T/C (endpoint: mean survival time, dose: 25.0 mg/kg/injection, schedule: Q01DX009 (ip), vehicle: saline) was 98 % of control and the T/C (endpoint: mean survival time, dose: 50.0 mg/kg/injection, schedule: Q01DX009 (ip), vehicle: saline) was 101 % of control.
`NCc1ccccc1` was tested, and the T/C [1] was 96 % of control, the T/C (endpoint: mean survival time, dose: 100.0 mg/kg/injection, schedule: Q04DX003 (ip), vehicle: acetone) was 110 % of control and the T/C [2] was 99 % of control. The T/C [3] was 100 % of control, the T/C (endpoint: mean survival time, dose: 200.0 mg/kg/injection, schedule: Q04DX003 (ip), vehicle: acetone) was 108 % of control and the T/C [4] was 99 % of control. For the same compound, the T/C [5] was 98 % of control, the T/C (endpoint: mean survival time, dose: 400.0 mg/kg/injection, schedule: Q04DX003 (ip), vehicle: acetone) was 97 % of control and the T/C [6] was 97 % of control.
With `Cc1c(O)c(=O)n(-c2ccccc2)n1C` the T/C [2] was 96 % of control, the T/C [4] was 93 % of control and the T/C [6] was 96 % of control.
With `C=CCNc1ncnc2c1ncn2C1OC(CO)C(O)C1O` (stereo not drawn) the T/C (endpoint: mean survival time, dose: 75.0 mg/kg/injection, schedule: Q01DX001 (ip), vehicle: other) was 112 % of control and the T/C (endpoint: mean survival time, dose: 150.0 mg/kg/injection, schedule: Q01DX001 (ip), vehicle: other) was 103 % of control.
`CS(=O)(=O)C(Br)(Br)S(C)(=O)=O` was tested, and the T/C (endpoint: mean survival time, dose: 4.7 mg/kg/injection, schedule: Q01DX001 (ip), vehicle: saline with Tween-80) was 103 % of control and the T/C (endpoint: mean survival time, dose: 9.4 mg/kg/injection, schedule: Q01DX001 (ip), vehicle: saline with Tween-80) was 100 % of control.
With `Cc1ccc(-n2c(=S)[nH]c3ccc(C)cc3c2=O)cc1` the T/C (endpoint: mean survival time, dose: 0.38 mg/kg/injection, schedule: Q01DX009 (ip), vehicle: saline with Tween-80) was 90 % of control, the T/C (endpoint: mean survival time, dose: 0.75 mg/kg/injection, schedule: Q01DX009 (ip), vehicle: saline with Tween-80) was 92 % of control and the T/C (endpoint: mean survival time, dose: 1.5 mg/kg/injection, schedule: Q01DX009 (ip), vehicle: saline with Tween-80) was 98 % of control. For the same compound, the T/C (endpoint: mean survival time, dose: 1.56 mg/kg/injection, schedule: Q01DX009 (ip), vehicle: saline with Tween-80) was 95 % of control, the T/C (endpoint: mean survival time, dose: 25.0 mg/kg/injection, schedule: Q04DX003 (ip), vehicle: saline with Tween-80) was 92 % of control and the T/C (endpoint: mean survival time, dose: 50.0 mg/kg/injection, schedule: Q04DX003 (ip), vehicle: saline with Tween-80) was 90 % of control. The T/C [2] was 87 % of control.
For `CC(C)CP(=O)(CC(C)C)CC(C)C`, the T/C (endpoint: mean survival time, dose: 1.56 mg/kg/injection, schedule: Q04DX003 (ip), vehicle: saline with Tween-80) was 98 % of control, the T/C (endpoint: mean survival time, dose: 3.13 mg/kg/injection, schedule: Q04DX003 (ip), vehicle: saline with Tween-80) was 98 % of control and the T/C (endpoint: mean survival time, dose: 6.25 mg/kg/injection, schedule: Q04DX003 (ip), vehicle: saline with Tween-80) was 101 % of control.
For `CC1CN(C)CCN1C` (stereo not drawn), the T/C (endpoint: mean survival time, dose: 100.0 mg/kg/injection, schedule: Q01DX009 (ip), vehicle: saline) was 100 % of control, the T/C [7] was 104 % of control and the T/C (endpoint: mean survival time, dose: 200.0 mg/kg/injection, schedule: Q01DX009 (ip), vehicle: saline) was 100 % of control. The T/C [8] was 104 % of control, the T/C (endpoint: mean survival time, dose: 400.0 mg/kg/injection, schedule: Q01DX009 (ip), vehicle: saline) was 98 % of control and the T/C (endpoint: mean survival time, dose: 400.0 mg/kg/injection, schedule: Q04DX003 (ip), vehicle: saline) was 98 % of control.
For `CCCCCCCC(O)CCCCCCC`, the T/C [9] was 101 % of control, the T/C (endpoint: mean survival time, dose: 100.0 mg/kg/injection, schedule: Q04DX003 (ip), vehicle: other) was 95 % of control and the T/C [10] was 98 % of control. The T/C (endpoint: mean survival time, dose: 200.0 mg/kg/injection, schedule: Q04DX003 (ip), vehicle: other) was 97 % of control, the T/C (endpoint: mean survival time, dose: 400.0 mg/kg/injection, schedule: Q01DX009 (ip), vehicle: other) was 95 % of control and the T/C (endpoint: mean survival time, dose: 400.0 mg/kg/injection, schedule: Q04DX003 (ip), vehicle: other) was 100 % of control.
With `ClC1C(Cl)C(Cl)C(Cl)C(Cl)C1Cl` (stereo not drawn) the T/C (endpoint: mean survival time, dose: 10.0 mg/kg/injection, schedule: Q01DX009 (ip), vehicle: saline with Tween-80) was 104 % of control, the T/C (endpoint: mean survival time, dose: 20.0 mg/kg/injection, schedule: Q01DX009 (ip), vehicle: saline with Tween-80) was 105 % of control and the T/C (endpoint: mean survival time, dose: 40.0 mg/kg/injection, schedule: Q01DX009 (ip), vehicle: saline with Tween-80) was 100 % of control. The T/C [9] was 102 % of control, the T/C (endpoint: mean survival time, dose: 100.0 mg/kg/injection, schedule: Q04DX003 (ip), vehicle: Klucel (hydroxypropylcellulose) (HPC)) was 102 % of control and the T/C [10] was 96 % of control. For the same compound, the T/C (endpoint: mean survival time, dose: 200.0 mg/kg/injection, schedule: Q04DX003 (ip), vehicle: Klucel (hydroxypropylcellulose) (HPC)) was 107 % of control and the T/C (endpoint: mean survival time, dose: 400.0 mg/kg/injection, schedule: Q04DX003 (ip), vehicle: Klucel (hydroxypropylcellulose) (HPC)) was 102 % of control.
With `O=C(c1ccccc1)c1ccc2c(c1)-c1ccccc1-2` the T/C [1] was 94 % of control, the T/C [2] was 100 % of control and the T/C [3] was 94 % of control. For the same compound, the T/C [4] was 93 % of control, the T/C [5] was 93 % of control and the T/C [6] was 95 % of control.
In the case of `N#C/C(=C(\N)c1ccccc1)c1ccccc1`, the T/C (endpoint: mean survival time, dose: 100.0 mg/kg/injection, schedule: Q01DX001 (ip), vehicle: Klucel (hydroxypropylcellulose) (HPC)) was 93 % of control and the T/C (endpoint: mean survival time, dose: 400.0 mg/kg/injection, schedule: Q01DX001 (ip), vehicle: Klucel (hydroxypropylcellulose) (HPC)) was 112 % of control.
In the case of `CC(=O)OC1CCC2(C)C(=CCC3C2CCC2(C)C(C(C)C(=O)O)CCC32)C1` (stereo not drawn), the T/C (endpoint: mean survival time, dose: 100.0 mg/kg/injection, schedule: Q01DX001 (ip), vehicle: saline with Tween-80) was 102 % of control, the T/C (endpoint: mean survival time, dose: 200.0 mg/kg/injection, schedule: Q01DX001 (ip), vehicle: saline with Tween-80) was 100 % of control and the T/C (endpoint: mean survival time, dose: 400.0 mg/kg/injection, schedule: Q01DX001 (ip), vehicle: saline with Tween-80) was 96 % of control.
For `COS(=O)(=O)O`, the T/C [7] was 96 % of control and the T/C [8] was 96 % of control.
`COC(=O)c1c(C(=O)OC)c(-c2ccc(Cl)c(Cl)c2)n2c1CCC2` was tested, and the T/C (endpoint: mean survival time, dose: 50.0 mg/kg/injection, schedule: Q01DX009 (ip), vehicle: Klucel (hydroxypropylcellulose) (HPC)) was 91 % of control, the T/C (endpoint: mean survival time, dose: 100.0 mg/kg/injection, schedule: Q01DX009 (ip), vehicle: Klucel (hydroxypropylcellulose) (HPC)) was 88 % of control and the T/C (endpoint: mean survival time, dose: 200.0 mg/kg/injection, schedule: Q01DX009 (ip), vehicle: Klucel (hydroxypropylcellulose) (HPC)) was 98 % of control.
With `O=P(O)(O)OP(=O)(O)O.[NH-]CC[NH-].[NH-]CC[NH-].[Pd+2].[Pd+2]` the T/C (endpoint: mean survival time, dose: 3.13 mg/kg/injection, schedule: Q04DX003 (ip), vehicle: distilled water + Tween-80) was 98 % of control, the T/C (endpoint: mean survival time, dose: 6.25 mg/kg/injection, schedule: Q04DX003 (ip), vehicle: distilled water + Tween-80) was 93 % of control and the T/C (endpoint: mean survival time, dose: 12.5 mg/kg/injection, schedule: Q04DX003 (ip), vehicle: distilled water + Tween-80) was 87 % of control. For the same compound, the T/C (endpoint: mean survival time, dose: 25.0 mg/kg/injection, schedule: Q04DX003 (ip), vehicle: distilled water + Tween-80) was 96 % of control, the T/C (endpoint: mean survival time, dose: 50.0 mg/kg/injection, schedule: Q04DX003 (ip), vehicle: distilled water + Tween-80) was 100 % of control and the T/C (endpoint: mean survival time, dose: 100.0 mg/kg/injection, schedule: Q04DX003 (ip), vehicle: distilled water + Tween-80) was 105 % of control.
`C/C=C1/C(=O)Oc2ccccc21` was tested, and the T/C (endpoint: mean survival time, dose: 50.0 mg/kg/injection, schedule: Q01DX009 (ip), vehicle: saline with Tween-80) was 101 % of control, the T/C [1] was 101 % of control and the T/C [3] was 106 % of control.
